Results as given in paper PMC11532403 (Signal Transduction and Targeted Therapy, 2024).
Read-outs that look alike come from different tables or passages of the source.

Legend:
[1] = Liver microsome metabolic stability; assay type: in vitro ADME; conditions: 1 μM
Excerpt: The production of major metabolites in human liver microsomes is closer to that in rats or dogs than in mice or monkeys. The amounts of major metabolites produced in human liver microsomes was closer to the amount produced in […]. […] In addition to the same eight monophasic metabolites as in the in vitro study, five di-phasic metabolites, M6, M7, M8, M9 and M10, were detected in rat bile, but the peak areas of the di-phasic metabolites were much smaller than those of the monophasic metabolites.

[2] = test system: RET signaling in BaF3-CCDC6-RET^V804M/M918T cells; assay: RET signaling pathway phosphorylation in cells; assay type: cell-based
cardiovascular system = assay: Cardiovascular safety pharmacology; assay type: in vivo; conditions: males 2, 4, 6 mg/kg; females 4, 8, 12 mg/kg oral
Experimental: In the safety pharmacological study of cardiovascular effects, four male and four female beagles with buried implants were selected. […] The animals were evaluated by cage-side and detailed clinical observations, electrocardiogram, heart rate, body temperature and blood pressure.

[3] = test system: HEK293T-KIF5B-RET WT cells; assay: Proliferation assay (CellTiter-Glo); assay type: cell-based; conditions: Homo sapiens, read-out: Cellular Viability IC50
Experimental: (§1) The cell lines HEK293T, Baf3, TT cell and NIH-3T3 were obtained from the Cell Resource Center, Peking Union Medical College (PCRC). HEK293T and NIH-3T3 were maintained in DMEM high glucose medium (#C3113-0500, Vivacell) supplemented with 10 % FBS (#10500064, Gibco) and 1 % Penicillin-Streptomycin (#15140122, Gibco). The murine Pro‐B cell line Baf3 was cultured in RPMI 1640 medium (#C3010, Vivacell) supplemented with 10 % FBS, 1 % Penicillin-Streptomycin and 1 ng/mL recombinant murine interleukin-3 (#213-13, PeproTech). All stably transformed BaF3 cells were cultured in RPMI 1640 without IL‐3. The TT MTC cell was grown in Ham's F-12K medium (#21127022, Gibco) supplemented with 10 % FBS and 1 % Penicillin-Streptomycin. Cells were cultured at 37 °C under 5 % CO2 and high humidity conditions.
(§2) KIF5B-RET, CCDC6-RET and mutations were cloned into pCDHL vector and were verified by sequencing. Reah RET expression vectors were separately co‐transfected with psPAX2 and pMD2.G packaging plasmids into 60-70% confluent HEK 293T cells maintained in 2 mL of culture medium in six‐well plates using Polyethyleneimine (PEI) transfection grade. Virus containing media was harvested after 48 h and filtered with 0.45 μm membrane and stored at -80 °C prior to infection. For infection of Ba/F3 cells, 1 mL of viral supernatant and 8 μg/mL polybrene were added to 5 million cells per well in six‐well plates. Infected cells were selected with the addition of 1 μg/mL puromycin for 2 weeks in RPMI-1640/ 10% FBS/ 1 ng/mL IL-3 medium. Subsquently, puromycin-resistant cells were cultured in IL-3-free medium for 1 week and RET fusion proteins were confirmed by immunoblot analysis.
(§3) Cell viability was assessed by luminescence using CellTiter-Glo 2.0 assay (Promega). IC50 curve fitting was performed using GraphPad Prism 9.0.

[4] = test system: HEK293T-KIF5B-RET V804M cells; assay: Proliferation assay (CellTiter-Glo); assay type: cell-based; conditions: Homo sapiens, read-out: Cellular Viability IC50
Experimental: as §1, §2, §3

[5] = test system: HEK293T-KIF5B-RET M918T cells; assay: Proliferation assay (CellTiter-Glo); assay type: cell-based; conditions: Homo sapiens, read-out: Cellular Viability IC50
Experimental: as §1, §2, §3

[6] = test system: central nervous system (CNS) metastases; assay: Phase 1 trial: intracranial efficacy (RANO-BM); assay type: in vivo, human; conditions: for Intracranial lesion reduction: case, KIF5B-RET NSCLC, 160 mg BID
Excerpt: Ongoing assessments are underway to gain a more comprehensive understanding of its intracranial efficacy.

NIH-3T3 cells = assay: Proliferation assay (CellTiter-Glo); assay type: cell-based, murine; conditions: Mus musculus, NIH3T3; NIH-3T3 (RET-negative); read-out: Cellular Viability IC50
Experimental: (§4) The cell lines HEK293T, Baf3, TT cell and NIH-3T3 were obtained from the Cell Resource Center, Peking Union Medical College (PCRC). […] All stably transformed BaF3 cells were cultured in RPMI 1640 without IL‐3. […] Cells were cultured at 37 °C under 5 % CO2 and high humidity conditions. […] Cell viability was assessed by luminescence using CellTiter-Glo 2.0 assay (Promega). IC50 curve fitting was performed using GraphPad Prism 9.0.

[7] = Excretion in rats (feces, urine, bile); assay type: in vivo
Experimental: The total fecal and urinary excretion of prodrug and metabolite was 62.8% of the administered dose. The amount of prodrug and metabolite in bile from 0 to 48 h in bile duct-intubated rats was 5.22% of the administered dose, of which 0.656% was prodrug and 4.57% was metabolite.

hERG potassium channel = hERG potassium channel (Homo sapiens, UniProt Q12809); assay: hERG whole-cell patch clamp; assay type: cell-based; conditions: ± 368.5 nM, read-out: hERG current IC50
Excerpt: The rapidly activating potassium channel encoded by the human ether a-go-go-related gene (hERG) is an important ion channel involved in the formation of phase 3 repolarisation of the myocardial action potential. Pharmacological blockade of hERG channels can lead to prolonged cardiac repolarisation with the electrocardiographic manifestation of a prolonged QT interval, known as long QT interval syndrome. Drug-induced delayed ventricular repolarisation can in some cases lead to a fatal arrhythmia, tip-twist ventricular tachycardia.

[8] = 28-day repeat-dose toxicity; assay type: in vivo; conditions: SD, rat, plasma, po; for AUC(0-t): read-out: AUClast at STD10, day 28; for Cmax: read-out: Cmax at STD10, day 28
SD rats = assay: 28-day repeat-dose toxicity; assay type: in vivo
CYP3A4 = assay: CYP induction in hepatocytes; assay type: in vitro ADME, human; conditions: 1, 5, 50 μM, three donors
TT cells (RET^C634W) = assay: Proliferation assay (CellTiter-Glo); assay type: cell-based; conditions: Homo sapiens, 72 hours, read-out: Cellular Viability IC50
Experimental: as §4

[9] = preclinical SD rat repeated administration

Sequence of hERG potassium channel (Q12809 whole entry): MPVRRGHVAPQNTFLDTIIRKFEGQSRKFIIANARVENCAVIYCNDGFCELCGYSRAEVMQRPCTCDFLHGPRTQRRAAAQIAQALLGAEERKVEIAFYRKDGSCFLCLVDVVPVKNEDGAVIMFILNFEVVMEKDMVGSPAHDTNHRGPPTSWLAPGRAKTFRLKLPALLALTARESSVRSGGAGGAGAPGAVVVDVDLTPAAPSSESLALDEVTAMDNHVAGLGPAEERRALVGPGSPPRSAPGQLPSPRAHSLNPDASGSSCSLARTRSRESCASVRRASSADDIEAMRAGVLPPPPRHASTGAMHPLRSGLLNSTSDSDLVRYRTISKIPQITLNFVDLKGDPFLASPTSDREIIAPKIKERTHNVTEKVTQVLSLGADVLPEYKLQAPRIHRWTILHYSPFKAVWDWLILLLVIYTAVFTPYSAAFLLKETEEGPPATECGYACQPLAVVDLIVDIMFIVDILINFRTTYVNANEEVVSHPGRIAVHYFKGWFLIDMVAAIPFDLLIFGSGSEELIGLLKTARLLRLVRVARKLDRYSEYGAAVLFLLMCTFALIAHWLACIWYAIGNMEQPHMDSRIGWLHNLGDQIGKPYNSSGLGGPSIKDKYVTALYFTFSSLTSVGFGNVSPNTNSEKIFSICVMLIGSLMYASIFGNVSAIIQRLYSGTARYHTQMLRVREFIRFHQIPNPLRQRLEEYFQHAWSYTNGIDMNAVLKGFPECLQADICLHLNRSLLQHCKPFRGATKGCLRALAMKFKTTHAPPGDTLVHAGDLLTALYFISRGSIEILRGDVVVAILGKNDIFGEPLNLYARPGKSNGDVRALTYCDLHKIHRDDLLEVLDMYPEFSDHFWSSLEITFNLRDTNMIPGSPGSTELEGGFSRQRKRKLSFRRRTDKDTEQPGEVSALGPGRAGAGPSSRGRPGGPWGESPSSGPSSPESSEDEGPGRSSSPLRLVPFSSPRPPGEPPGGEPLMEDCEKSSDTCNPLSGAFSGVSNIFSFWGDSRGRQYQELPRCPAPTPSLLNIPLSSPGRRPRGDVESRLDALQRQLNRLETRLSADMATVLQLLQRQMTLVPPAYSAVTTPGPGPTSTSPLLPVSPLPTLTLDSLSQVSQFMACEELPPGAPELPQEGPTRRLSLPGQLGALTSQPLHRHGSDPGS

## COc1ccc(CN2C3CC2CN(c2ccc(-c4cc(N5CC(C)(O)C5)cn5ncc(C#N)c45)cn2)C3)cn1 [SY-5007, 6-(3-hydroxy-3-methylazetidin-1-yl)-4-(6-(6-((6-methoxypyridin-3-yl)methyl)-3,6-diazabicyclo[3.1.1]heptan-3-yl)pyridin-3-yl)pyrazolo[1,5-a]pyridine-3-carbonitrile]
[1]; dog liver microsomes
  Metabolic half-time: 280 min
[1]; human liver microsomes
  Metabolic half-time: 166 min
[1]; monkey liver microsomes
  Metabolic half-time: 57.9 min
[1]; mouse liver microsomes
  Metabolic half-time: 109 min
[1]; rat liver microsomes
  Metabolic half-time: 384 min
[2]
  Concentration of saturation: 100 nM
  Concentration with significant inhibitory effect on RET signaling: 10 nM
Cardiovascular system
  Cardiovascular effects: None of the changes were found to be related to the study drug
[3]
  IC50: 0.0544 µM
[4]
  IC50: 0.099 µM
[5]
  IC50: 0.057 µM
[6]; 2/3 patients with measurable CNS metastases
  Intracranial ORR: 66.7%
[6]; 3/3 patients
  Intracranial DCR: 100.0%
[6]; after 4 weeks
  Intracranial lesion reduction: 40.7%
[6]; after 12 weeks
  Intracranial lesion reduction: 56.5%
NIH-3T3 cells
  IC50: > 5 µM
[7]; 20 mg/kg gavage
  Fecal excretion, prodrug (parent): 55.4%
  Urinary excretion, prodrug (parent): 0.801%
[7]; bile duct-intubated rats
  Bile excretion, prodrug (parent): 0.656%
hERG potassium channel
  IC50: 3.3 µM
[8]; female, females 60 mg/kg
  AUC(0-t): 122 µg·h/mL
  Cmax: 14.9 µg/mL
[8]; male, males 30 mg/kg
  AUC(0-t): 111 µg·h/mL
  Cmax: 8.17 µg/mL
SD rats; female SD rats, GLP long toxicity study
  STD10: 60 mg/kg
SD rats; females, 28 days
  STD10: 60 mg/kg
SD rats; male SD rats, GLP long toxicity study
  STD10: 30 mg/kg
SD rats; males, 28 days
  STD10: 30 mg/kg
SD rats; [9]
  Electrolyte abnormalities (blood PK): ? Abnormalities such as blood PK were found in the preclinical SD rat and Beagle repeated administration test of this product, and the relevant regulations were carried out in consideration of the fact that similar mechanism of action drugs have been reported.
  Plasma protein: TP, ALB, A/G: ? TP, ALB, A/G were abnormal in the repeated administration test of preclinical SD rats of this product, and considering that drugs with similar mechanisms of action have been reported, relevant provisions are made.
  TG (hyperlipidemia): ? TG is abnormal in the repeated administration test of preclinical SD rats of this product, and considering that drugs with similar mechanisms of action have been reported, relevant provisions are made.
SD rats; preclinical SD rats, repeated dosing
  Bleeding tendency: gastric mucosa and ileum findings: ? This drug was found to have gastric mucosal reddening and ileal discolouration in preclinical SD rats and Beagle dogs in repeated dosing tests, so the relevant provisions were made.
SD rats; repeat dose study in SD rats
  Kidney: creatinine: elevated creatinine
CYP3A4
  CYP3A4 induction: no induction
TT cells (RET^C634W)
  IC50: 0.00911 µM
